Results published in patent US9073863B2, “Cyanoquinoline compounds having activity in correcting mutant-CFTR processing and increasing ion transport and uses thereof” (The Regents of the University of California, priority 2011, dated 2015).

How the values were obtained:
ΔF508-CFTR [1] = molecular target: T1, ΔF508-CFTR (Homo sapiens, UniProt P13569, DEL508-508); test: CFTR immunoblot of ΔF508-CFTR expressing FRT cells; type: cell-based; conditions: 24 h at 37° C.
T1 construct: expressed in transfected cells; host or cells: Fischer rat thyroid (FRT) epithelial cells, stably transfected
Experimental: CFTR Immunoblot. DF508-CFTR expressing FRT cells grown on 6-well plates were treated with Corr-4a ([…]), Compound 22 […] or negative control at 37° C. for 24 h. After treatment, cells were washed with PBS and lysed in 20 mM Hepes (pH 7), 150 mM NaCl, 1 mM EGTA and 1% Igepal containing Complete Protease Inhibitor Cocktail (Roche). After pre-clearing, lysates were subjected to SDS-PAGE and analyzed by immunoblot. Proteins were immunodetected using a mouse monoclonal anti-CFTR antibody (M3A7, Millipore) followed by HRP-conjugated anti-mouse IgG, and visualized by chemiluminescence (ECL Plus, Amersham).
The action of Compound 22 as corrector of defective ΔF508-CFTR cellular processing was verified by CFTR immunoblot analysis (FIG. 4C). Wildtype CFTR was detected as a strong band at 170 kDa (band C), corresponding to complex glycosylated CFTR. […] Band B, which corresponds to core-glycosylated ΔF508-CFTR, was also seen.

ΔF508-CFTR [2] = molecular target: T1, ΔF508-CFTR; test: Corrector assay, YFP fluorescence plate reader iodide influx in ΔF508-CFTR expressing FRT cells; type: cell-based; conditions: Compound 22 (20 µM) or Corr-4a (10 µM), 24 h
Experimental: Screening procedures. Screening of compounds for activity was carried out using a Beckman Coulter platform equipped with FLUOstar fluorescence plate readers (Optima; BMG Labtech) with dual syringe pumps and 500±10 nm excitation and 535±15 nm emission filters (Chroma Corp.). For the corrector assay, FRT cells were grown at 37° C./5% CO2 for 18-24 h and then incubated for 18-24 h with 100 μL of medium containing test compounds (25 μM final concentration). At the time of the assay, cells were washed with PBS and then incubated for 10 min with PBS containing forskolin (20 μM) and genistein (50 μM). For the potentiator assay, FRT cells were grown at 37° C./5% CO2 for 18-24 h and then for 18-24 h at 27° C. At the time of the assay, cells were washed with PBS and then incubated for 10 min with PBS (50 μL) containing forskolin (20 μM) and test compound (0-25 μM final concentration). For both the corrector and potentiator assays, each well was assayed individually for I^− influx by recording fluorescence continuously (200 ms per point) for 2 s (baseline) and then for 12 s after rapid addition of 165 μL PBS in which 137 mM Cl^− was replaced by I^−. Initial I^− influx rate was computed by fitting the final 11.5 seconds of the data to an exponential for extrapolation of initial slope, which was normalized for background-subtracted initial fluorescence. All compound plates contained negative controls and positive controls (10 μM Corr-4a for corrector assay; 50 μM genistein for potentiator assay).
Screening of about 110,000 small molecules was done to identify new ΔF508-CFTR corrector scaffolds having high correction efficiency and/or having independent potentiator activity. […] FRT cells co-expressing human ΔF508-CFTR and a halide-sensing YFP were incubated with test compounds at 37° C. (corrector assay) or 27° C. (potentiator assay). ΔF508-CFTR function was assayed in a plate reader from YFP fluorescence quenching in response to iodide addition in the presence of forskolin (20 μM) plus genistein (50 μM) for corrector assay, or forskolin (20 μM) alone for potentiator assay. As shown in FIG. 1A (left), primary screening for corrector activity was done using a cell-based fluorescence assay of iodide influx in which FRT cells expressing ΔF508-CFTR and an iodide-sensitive YFP were incubated with test compounds at 10 μM for 18-24 h prior to assay. Iodide influx was measured by addition of extracellular iodide in the presence of a potentiator (50 μM genistein) and cAMP agonist (20 μM forskolin). Compound efficacy and potency (from concentration-dependence studies) in the corrector assay were compared to reference bithiazole Corr-4a (10 μM) and to low-temperature rescued cells. Active compounds were counter-screened for potentiator activity (FIG. 1A, right) in which iodide influx was measured in the ΔF508-CFTR expressing FRT cells after low-temperature rescue and in the presence of 20 μM forskolin.
Screening procedures. Plate reader activity assay was carried out using a Beckman Coulter platform containing a robotic arm, CO2 incubator containing microplate carousel, plate-washer, liquid handling work station, bar code reader, de-lidding station, plate sealer, and FLUOstar fluorescence plate readers (Optima; BMG LABTECH Gmbh), equipped with dual syringe pumps and 500±10 nm excitation and 535±15 nm emission filters (Chroma Corp.). For the corrector assay, ΔF508-CFTR-expressing FRT cells were grown at 37° C. (90% humidity; 5% CO2) for 18-24 h and then incubated for 18-24 h with 100 μL of medium containing test compounds (0-25 μM final concentration). At the time of the assay, cells were washed with PBS and then incubated for 10 min with PBS containing forskolin (20 μM) and genistein (50 μM). For the potentiator assay, FRT cells were grown at 37° C. (90% humidity; 5% CO2) for 18-24 h and then for 18-24 h at 27° C. […]

T1 sequence (P13569 with tags, fused parts or gaps DEL508-508): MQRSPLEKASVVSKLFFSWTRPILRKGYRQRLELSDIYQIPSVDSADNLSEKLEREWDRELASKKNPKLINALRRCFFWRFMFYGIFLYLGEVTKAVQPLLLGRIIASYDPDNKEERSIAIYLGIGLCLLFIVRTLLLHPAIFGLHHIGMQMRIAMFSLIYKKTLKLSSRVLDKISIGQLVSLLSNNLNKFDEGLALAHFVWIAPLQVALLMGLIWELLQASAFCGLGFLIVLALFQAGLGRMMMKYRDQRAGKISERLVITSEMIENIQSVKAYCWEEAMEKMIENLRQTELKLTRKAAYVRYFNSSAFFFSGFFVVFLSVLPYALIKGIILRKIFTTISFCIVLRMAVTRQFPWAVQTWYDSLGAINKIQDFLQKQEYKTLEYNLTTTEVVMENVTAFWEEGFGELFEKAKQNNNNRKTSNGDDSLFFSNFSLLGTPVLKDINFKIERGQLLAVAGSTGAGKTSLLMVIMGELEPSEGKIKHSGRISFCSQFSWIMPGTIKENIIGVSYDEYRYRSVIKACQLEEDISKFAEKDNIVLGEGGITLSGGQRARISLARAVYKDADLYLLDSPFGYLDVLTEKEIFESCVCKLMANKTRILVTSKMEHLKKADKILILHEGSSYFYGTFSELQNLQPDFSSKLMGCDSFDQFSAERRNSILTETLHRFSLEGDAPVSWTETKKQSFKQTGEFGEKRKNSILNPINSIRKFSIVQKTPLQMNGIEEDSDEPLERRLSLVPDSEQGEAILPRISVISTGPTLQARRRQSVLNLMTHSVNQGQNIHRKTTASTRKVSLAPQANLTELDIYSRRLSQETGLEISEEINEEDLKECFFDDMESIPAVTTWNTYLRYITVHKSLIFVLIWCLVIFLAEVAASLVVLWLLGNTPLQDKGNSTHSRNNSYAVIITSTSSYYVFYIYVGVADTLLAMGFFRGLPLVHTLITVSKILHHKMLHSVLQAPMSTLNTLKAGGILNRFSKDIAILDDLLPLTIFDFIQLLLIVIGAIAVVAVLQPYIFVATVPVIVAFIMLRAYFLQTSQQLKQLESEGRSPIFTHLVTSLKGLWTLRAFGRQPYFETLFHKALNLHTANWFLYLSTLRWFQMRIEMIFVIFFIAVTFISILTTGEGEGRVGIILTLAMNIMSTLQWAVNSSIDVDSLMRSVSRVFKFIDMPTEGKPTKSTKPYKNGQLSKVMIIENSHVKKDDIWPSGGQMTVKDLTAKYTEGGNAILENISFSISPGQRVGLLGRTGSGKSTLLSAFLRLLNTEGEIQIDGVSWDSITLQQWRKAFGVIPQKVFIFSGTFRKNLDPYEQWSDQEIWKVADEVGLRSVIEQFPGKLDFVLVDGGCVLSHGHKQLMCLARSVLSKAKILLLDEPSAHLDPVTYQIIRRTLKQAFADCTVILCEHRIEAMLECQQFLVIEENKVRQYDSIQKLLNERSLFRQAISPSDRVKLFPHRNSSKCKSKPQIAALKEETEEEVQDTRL

complex glycosylated CFTR (band C) in immunoblot (ΔF508-CFTR [1]): band C was visualized
iodide influx after incubation at 27° C. (ΔF508-CFTR [2]; 27° C., vs low-temperature rescue control): substantially increased iodide influx
iodide influx after incubation at 37° C. (ΔF508-CFTR [2]; 37° C., with genistein): increased iodide influx
SMILES: COc1ccc(Cl)cc1Nc1nc(-c2sc(NC(=O)c3ccccc3)nc2C)cs1 [Corr-4a, reference compound]
